Data: paper PMC12074917, “Molecular pharmacokinetic mechanism of JBP485 against aristolochic acid I (AAI) -induced nephrotoxicity” (Frontiers in Pharmacology, 2025)

How the values were obtained:
NRK-52E cells = test: CCK-8 cell viability assay; type: cell-based, rat
Experimental: AAI was prepared to make a series of working dilutions in serum-free DMEM. The NRK-52E cells were plated in 96-well plates at a density of 5 ×10^4 cells/mL for 24 h at 37 °C and then challenged with various concentrations of AAI (0, 1, 2, 4, 8, 16, 32, 64, 128 and 256 μM). Cell viability was assessed using the CCK-8 assay.
NRK-52E cells were seeded in 96-well plates at a density of 5 × 10^4 cells/mL and incubated for 24 h at 37 °C. Following pretreatment with various concentrations of JBP485 (7.8125, 15.625, 31.25, 62.5, 125, and 250 μM) for 2.5 h, the cells were challenged with AAI (11 μM) for 24 h. Cell viability was subsequently assayed using a CCK-8 kit.

[1] = test system: AAI-induced nephrotoxicity in rats; test: Toxicity study in rats (AAI-induced nephrotoxicity, AAN): histology, biochemical indicators, oxidative stress markers, Western blotting of kidney; type: in vivo, rat
Experimental: For the assessment of toxicity, AAI was suspended in olive oil and JBP485 was dissolved in saline. Rats were randomly divided into the following four groups (n = 5 per group): A control group, which was administered saline intraperitoneally (i.p.) and olive oil orally (p.o.); a JBP485-only group, administered JBP485 i. p. at the dose of 50 mg/kg and olive oil p. o.; an AAI-only group, in which the rats were administered AAI p. o. at the dose of 20 mg/kg and saline i. p.; and a JBP485 + AAI group, where the animals were given AAI p. o. at the dose of 20 mg/kg and JBP485 i. p. at the dose of 50 mg/kg. JBP485 was intraperitoneally administered 2 days before AAI treatment. On day 3 and 30 min after AAI administration, rats were given saline i. p. or JBP485 (50 mg/kg) once daily for 7 days. On day 10, the rats were euthanized and blood, urine, and kidneys were collected for subsequent assays.
Indoxyl sulfate levels in plasma and urine of rats were determined by liquid chromatography-tandem mass spectrometry (LC–MS/MS) (API 3200; Applied Biosystems, Foster City, CA, United States) according to our previous study ([Guo et al., 2013]).
The levels of BUN and CRE in rat plasma were detected following the instructions of the Nanjing Jiancheng Institute of Biotechnology (Nanjing, China). Samples and reagents were added according to the instructions of the kit and reactions were carried out under the specified conditions. Absorbance was measured at 520 nm and 546 nm, respectively, and the quantities were calculated based on the corresponding formula.
For the extraction of total protein, 100 mg of fresh kidney tissue was placed in 1 mL of RIPA buffer containing protease inhibitor, phosphatase inhibitor, and PMSF, cut into small pieces with ophthalmic scissors, homogenized, and placed at 4°C to fully lyse for 20 min, with vortexing every 5 min. Following centrifugation at 12,000 rpm for 20 min at 4°C, the protein concentration in the supernatant was determined using a BCA protein quantification kit. The protein concentrations of all the samples were then adjusted to the lowest protein concentration measured. Subsequently, an appropriate amount of 5× loading buffer was added according to the volume, and the samples were placed in boiling water for 10 min. Equal amounts of protein (40 μg) were separated by SDS–PAGE at constant current (120 mA), transferred to a PVDF membrane by wet transfer, blocked in 5% non-fat dry milk for 2 h, and incubated overnight with primary antibodies. The next day, the samples were incubated with the corresponding secondary antibodies (goat anti-rabbit IgG [H&L], 1:2000, or goat anti-mouse IgG [H&L], 1:2000) for 2 h at room temperature. The protein bands were developed using enhanced chemiluminescence (ECL, YH0009-1, Nanjing Crane Biopharmaceuticals, Nanjing, China) and Tanon-5200 system (Shanghai Tianneng Technology Company, Shanghai, China) while ImageJ 6.0 software was used for analysis.

[2] = JBP485 50 mg/kg i.p. co-administered with AAI 20 mg/kg p.o.
[3] = JBP485 co-administered with AAI
[4] = JBP485 co-administered with AAI vs AAI alone
[5] = JBP485 treatment with AAI vs AAI alone
[6] = AAI group vs control, Western blot

## O=C1N[C@@H](CO)C(=O)N2C[C@H](O)C[C@@H]12 (relative stereo) [JBP485, cyclo-trans-4-L-hydroxyprolyl-L-serine]
NRK-52E cells; JBP485 7.8125-250 μM pretreatment 2.5 h, AAI 11 μM 24 h
  survival rates of NRK-52E cells challenged with AAI: dose-dependently increased
NRK-52E cells; JBP485 alone, concentrations up to 256 μM
  toxicity against NRK-52E cells: no JBP485-related toxicity
[1]; [2]
  AAI-induced weight loss: significantly prevented
  renal morphology: markedly improved
[1]; JBP485-only treatment group
  expression levels of Bcl-2 and Bax in the kidney: no change
[1]; JBP485 alone 50 mg/kg i.p.
  body weight or renal morphology: did not influence
[1]; JBP485 alone vs control
  kidney histology (H&E): no significant difference
[1]; [3]
  AAI effect on Bax expression in the kidney: notably reversed
  AAI effect on Bcl-2 expression in the kidney: notably reversed
  AAI-induced histopathological effects in the kidney (H&E): significantly mitigated
[1]; [4]
  kidney weight-to-body weight ratio: reduced
  plasma level of BUN: opposite trend
  plasma level of CRE: opposite trend
  plasma level of indoxyl sulfate: opposite trend
  urine level of indoxyl sulfate: opposite trend
[1]; JBP485 co-administered with AAI vs AAI alone, Western blot
  protein expressions of Oat1, Oat3, Oct2, P-gp, Mrp2 and Mate1 in the kidney: significantly increased
[1]; [5]
  AAI effect on HO-1 protein level in the kidney: reversed
  AAI effect on MDA levels in the kidney: reversed
  AAI effect on NQO1 protein level in the kidney: reversed
  AAI effect on SOD level in the kidney: reversed

## COc1cccc2c1cc([N+](=O)[O-])c1c(C(=O)O)cc3c(c12)OCO3 [AAI, Aristolochic Acid I]
NRK-52E cells; CCK-8
  concentration at which proliferation of NRK-52E cells is significantly inhibited (as low as): 2000 nM
NRK-52E cells; CCK-8, read-out: IC50 for NRK-52E cells (cytotoxicity)
  IC50: 11 µM
[1]; AAI 20 mg/kg p.o.
  kidney histology (H&E): showed damage
[1]; AAI 20 mg/kg p.o. vs control
  body weight: significantly decreased
  kidney weight-to-body weight ratio: increase
[1]; AAI group vs control
  MDA levels in the kidney: markedly increased
  SOD level in the kidney: significantly decreased
  plasma level of BUN: significantly higher
  plasma level of CRE: significantly higher
  plasma level of indoxyl sulfate: significantly higher
  urine level of indoxyl sulfate: lower
[1]; [6]
  Bax expression in the kidney: increased
  Bcl-2 expression in the kidney: decreased
  HO-1 protein level in the kidney: significantly decreased
  NQO1 protein level in the kidney: significantly decreased
[1]; AAI-treated rats, Western blot
  renal transporter expression (Oat1, Oat3, Oct2, P-gp, Mrp2, Mate1): downregulation
